From US11414384B2, “P300/CBP hat inhibitors” (Constellation Pharmaceuticals, Inc., priority 2018, dated 2022)

Legend:
[1] = molecular target: p300 HAT domain (residues 1287-1666) (Homo sapiens (Human), UniProt Q09472); assay: p300 HAT SPA assay (scintillation proximity assay, acetylation of biotinylated H3(1-21) peptide); type: biochemical; settings: p300 HAT domain; average of at least 2 replicate titrations; read-out: P300 HAT SPA IC50
Outline: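 Scintillation proximity readout of acetylated biotin-H3(1-21) captured on streptavidin plates after 1.5 hr at RT; enzyme was Ni2+/anion-exchange-purified HAT domain in 20 mM Hepes pH 7.5. Inhibitor IC50s calculated from the data.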

[2] = molecular target: full length p300 (Homo sapiens (Human), UniProt Q09472); assay: full length p300 SPA assay; type: biochemical; settings: average of at least 2 replicate titrations, read-out: FL P300 IC50
Protocol: Reactions were initiated with 12.5 μL 2 μM biotinylated H3(1-21) peptide (New England Peptide) and run for 1 hr at RT, then quenched with 20 μL stop solution (200 mM Tris pH 8.0, 200 mM EDTA, 2M NaCl, 160 μM anacardic acid). 35 μL of the reaction volume was transferred to a 384-well streptavidin FlashPlate (PerkinElmer) using a Bravo liquid handler (Velocity 11) and incubated for 1.5 hr at RT. Plates were aspirated, washed with 95 μL wash buffer (15 mM Tris pH 8.5, 0.069 μM Brij-35), aspirated, sealed, and scintillation counts read on a Topcount (PerkinElmer). Data were analyzed in Genedata to determine inhibitor IC50 values.
The full length p300 SPA assay was run following the same protocol as p300 HAT SPA assay, but used 6 nM purified full length p300 (purchased from Active Motif) in place of the purified p300-HAT domain.

[3] = system: acetylation of chromatin at H3K18 (catalyzed by p300 and CBP) in HCT-116 cells; assay: H3K18Ac MSD cellular assay; type: cell-based; settings: 2 hr treatment, average of at least 2 replicate titrations
Outline: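 Cellular H3K18 acetylation quantified by electrochemiluminescent MSD readout, lysates captured on anti-total-histone plates and probed with anti-H3K18ac plus Sulfo-Tag secondary. Before lysis, HCT-116 cells in RPMI/10% FBS, seeded the prior night, were exposed to compounds for 2 h at 37 °C.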

Sequence of full length p300 (Q09472 whole entry): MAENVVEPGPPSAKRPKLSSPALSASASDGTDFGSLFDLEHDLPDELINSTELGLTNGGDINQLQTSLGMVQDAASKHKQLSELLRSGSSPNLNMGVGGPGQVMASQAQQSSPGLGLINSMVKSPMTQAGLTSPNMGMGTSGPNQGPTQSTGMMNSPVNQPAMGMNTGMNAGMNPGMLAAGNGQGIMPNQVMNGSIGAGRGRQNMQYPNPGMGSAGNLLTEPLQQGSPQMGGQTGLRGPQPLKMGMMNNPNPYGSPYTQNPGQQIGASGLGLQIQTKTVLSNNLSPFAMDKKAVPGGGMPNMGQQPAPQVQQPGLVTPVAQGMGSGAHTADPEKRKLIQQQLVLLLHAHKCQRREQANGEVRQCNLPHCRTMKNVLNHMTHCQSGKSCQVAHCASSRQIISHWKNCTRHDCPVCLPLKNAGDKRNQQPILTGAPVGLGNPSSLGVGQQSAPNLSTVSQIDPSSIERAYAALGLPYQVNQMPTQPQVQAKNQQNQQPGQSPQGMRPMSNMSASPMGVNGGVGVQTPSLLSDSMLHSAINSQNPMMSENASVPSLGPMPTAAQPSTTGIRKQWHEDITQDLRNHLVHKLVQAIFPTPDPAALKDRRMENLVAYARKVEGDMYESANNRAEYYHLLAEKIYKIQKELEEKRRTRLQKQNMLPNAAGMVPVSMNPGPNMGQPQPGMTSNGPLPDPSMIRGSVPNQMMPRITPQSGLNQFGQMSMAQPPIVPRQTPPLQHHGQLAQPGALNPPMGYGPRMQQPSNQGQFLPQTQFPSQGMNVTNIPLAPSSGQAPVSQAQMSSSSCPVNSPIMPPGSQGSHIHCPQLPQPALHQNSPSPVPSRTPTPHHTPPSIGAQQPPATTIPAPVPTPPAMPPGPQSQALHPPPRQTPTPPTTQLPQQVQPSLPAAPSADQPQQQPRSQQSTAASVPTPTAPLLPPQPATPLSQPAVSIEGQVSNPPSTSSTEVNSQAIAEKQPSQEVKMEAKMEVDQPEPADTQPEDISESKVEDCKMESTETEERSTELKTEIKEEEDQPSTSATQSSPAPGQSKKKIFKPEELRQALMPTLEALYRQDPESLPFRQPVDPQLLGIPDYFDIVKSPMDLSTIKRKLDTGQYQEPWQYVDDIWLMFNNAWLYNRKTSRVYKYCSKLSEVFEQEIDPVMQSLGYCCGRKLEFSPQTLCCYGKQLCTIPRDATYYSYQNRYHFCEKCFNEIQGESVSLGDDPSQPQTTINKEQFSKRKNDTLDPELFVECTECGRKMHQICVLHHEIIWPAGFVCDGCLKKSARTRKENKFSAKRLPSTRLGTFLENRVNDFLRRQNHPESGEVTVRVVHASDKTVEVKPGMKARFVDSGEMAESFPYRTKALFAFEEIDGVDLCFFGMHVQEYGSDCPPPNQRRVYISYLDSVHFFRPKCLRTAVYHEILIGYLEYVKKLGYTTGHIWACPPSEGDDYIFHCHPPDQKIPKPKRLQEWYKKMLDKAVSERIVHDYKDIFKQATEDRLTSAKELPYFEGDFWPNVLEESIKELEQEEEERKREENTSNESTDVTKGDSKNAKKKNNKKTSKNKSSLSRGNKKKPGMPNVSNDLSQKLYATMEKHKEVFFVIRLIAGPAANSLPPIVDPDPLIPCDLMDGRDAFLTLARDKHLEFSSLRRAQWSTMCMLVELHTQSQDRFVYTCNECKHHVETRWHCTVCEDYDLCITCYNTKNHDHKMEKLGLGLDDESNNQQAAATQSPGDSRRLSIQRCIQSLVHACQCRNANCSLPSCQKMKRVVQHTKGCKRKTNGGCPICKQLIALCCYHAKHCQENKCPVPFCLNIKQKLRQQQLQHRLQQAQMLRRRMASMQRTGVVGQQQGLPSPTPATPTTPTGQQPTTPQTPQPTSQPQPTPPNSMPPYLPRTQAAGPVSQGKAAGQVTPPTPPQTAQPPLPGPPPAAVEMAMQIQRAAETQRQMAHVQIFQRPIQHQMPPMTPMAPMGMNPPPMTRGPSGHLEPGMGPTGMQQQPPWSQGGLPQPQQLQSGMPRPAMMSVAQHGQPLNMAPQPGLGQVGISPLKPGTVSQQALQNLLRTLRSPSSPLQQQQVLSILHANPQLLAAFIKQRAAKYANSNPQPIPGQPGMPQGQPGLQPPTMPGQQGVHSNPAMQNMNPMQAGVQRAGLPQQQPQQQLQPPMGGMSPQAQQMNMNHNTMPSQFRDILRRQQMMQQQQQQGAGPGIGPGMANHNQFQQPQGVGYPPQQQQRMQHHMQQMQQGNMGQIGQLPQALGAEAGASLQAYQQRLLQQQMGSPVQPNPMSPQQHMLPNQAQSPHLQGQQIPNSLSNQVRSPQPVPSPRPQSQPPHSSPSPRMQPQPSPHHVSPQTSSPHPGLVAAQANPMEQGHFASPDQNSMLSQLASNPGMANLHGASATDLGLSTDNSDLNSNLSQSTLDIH
Sequence of p300 HAT domain (residues 1287-1666) (Q09472 1287-1666): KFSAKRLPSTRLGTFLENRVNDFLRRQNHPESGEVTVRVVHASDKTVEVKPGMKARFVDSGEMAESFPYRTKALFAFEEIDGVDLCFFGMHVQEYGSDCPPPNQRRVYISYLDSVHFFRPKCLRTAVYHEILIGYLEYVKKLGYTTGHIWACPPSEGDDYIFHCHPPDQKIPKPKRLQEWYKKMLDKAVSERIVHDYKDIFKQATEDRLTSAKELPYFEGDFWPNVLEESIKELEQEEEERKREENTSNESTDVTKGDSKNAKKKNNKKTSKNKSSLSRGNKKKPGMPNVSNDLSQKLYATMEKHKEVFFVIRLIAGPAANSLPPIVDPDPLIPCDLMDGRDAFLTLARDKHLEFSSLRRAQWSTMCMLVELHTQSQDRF

SMILES | IC50 [1] [nM] | IC50 [2] [nM] | EC50 ([3]; Homo sapiens, HCT-116, 2 h) [nM] | EC50 [3] [nM]
CCNC(=O)c1ccc2c(C(=O)C(NCC(C)c3ccc(C#N)cc3)c3ccccc3)cnn2c1 (single isomer, unassigned) [69 Isomer 4] | 20.7 | 17.9 | 43.9 | 
Cn1cc(-c2ccc3c(C(=O)C(NCCc4ccc(F)cc4)c4ccccc4)c[nH]c3c2)cn1 (single isomer, unassigned) [78 Isomer 2] | 716 | 10.9 | 104 | 
COc1ccc(CCNC(C(=O)c2c[nH]c3c(C)cccc23)c2ccccc2)cc1 (single isomer, unassigned) [80 Isomer 2] | 1020 | 33.5 | 817 | 
O=C(c1c[nH]c2cc(-c3cccnc3)ccc12)C(NCCc1ccc(F)cc1)c1ccccc1 (single isomer, unassigned) [81 Isomer 2] | 1150 | 14.6 | 193 | 
O=C(c1c[nH]c2cc(-c3ccncc3)ccc12)C(NCCc1ccc(F)cc1)c1ccccc1 (single isomer, unassigned) [82 Isomer 2] | 875 | 18.2 |  | 128
CC(CNC(C(=O)c1cnn2cc(-c3cnn(C)c3)ccc12)c1ccccc1)c1ccc(C#N)cc1 (single isomer, unassigned) [102 Isomer 4] | 9.36 | 0.818 | 43 | 
O=C(c1c[nH]c2cc(-n3ccnc3)ccc12)C(NCCc1ccc(F)cc1)c1ccccc1 (single isomer, unassigned) [117 Isomer 1] | 839 | 14.2 | 162 | 
O=C(c1c[nH]c2cc(-n3cccn3)ccc12)C(NCCc1ccc(F)cc1)c1ccccc1 (single isomer, unassigned) [118 Isomer 2] | 2650 | 81.3 | 893 | 
CN1CCN(c2ccc3c(C(=O)C(NCCc4ccc(F)cc4)c4ccccc4)c[nH]c3c2)CC1 (single isomer, unassigned) [123 Isomer 2] | 808 | 12.3 | 216 | 
CN(C)C(=O)c1ccc2c(C(=O)C(NCCc3ccc(Cl)cc3Cl)c3ccccc3)c[nH]c2c1 (single isomer, unassigned) [152 Isomer 2] | 1260 | 28.7 | 327 | 

Other lines, results leading:

IC50 [1] [nM] | IC50 [2] [nM] | EC50 ([3]; Homo sapiens, HCT-116, 2 h) [nM] | EC50 [3] [nM] | SMILES
8.76 | 0.711 | 19.3 |  | CCNC(=O)c1ccc2c(C(=O)C(NCC(C)c3ccc(C#N)cc3)c3ccccc3)c[nH]c2c1 (single isomer, unassigned) [75 Isomer 4]
200 | 11.6 | 113 |  | CNC(=O)Cn1cc(-c2ccc3c(C(=O)C(NCCc4ccc(Cl)cc4)c4ccccc4)c[nH]c3c2)cn1 (single isomer, unassigned) [87 Isomer 2]
36.2 | 2.19 | 154 |  | CN1CCC(Oc2ccc3c(C(=O)C(NCCc4ccc(C#N)cc4)c4ccccc4)c[nH]c3c2)CC1 (single isomer, unassigned) [126 Isomer 2]
1830 | 63.3 | 4450 |  | O=C(O)c1ccc(CCNC(C(=O)c2c[nH]c3ccccc23)c2ccccc2)cc1 (single isomer, unassigned) [132 Isomer 1]
2120 | 101 | 1440 |  | NC(=O)c1ccc(CCNC(C(=O)c2c[nH]c3ccccc23)c2ccccc2)cc1 (single isomer, unassigned) [133 Isomer 2]
5160 | 151 | 1570 |  | CNC(=O)c1ccc(CCNC(C(=O)c2c[nH]c3ccccc23)c2ccccc2)cc1 (single isomer, unassigned) [134 Isomer 2]
26 | 14 |  | 36.6 | CCNC(=O)c1ccc2c(C(=O)[C@@H](NCCc3ccc(C#N)cc3)c3ccccc3)c[nH]c2c1 (single isomer, unassigned) [146 Isomer 2]
2240 | 77.3 | 16700 |  | N#Cc1ccc(CCNC(C(=O)c2c[nH]c3cc(C(=O)O)ccc23)c2ccccc2)cc1 (single isomer, unassigned) [155 Isomer 1]
17 | < 2 | 46.6 |  | CNC(=O)c1ccc2c(C(=O)C(NCCc3ccc(C#N)cc3)c3ccccc3)c[nH]c2c1 (single isomer, unassigned) [156 Isomer 2]
